Measured values published in patent US8648076B2, “Cysteine protease inhibitors and their therapeutic applications” (Hybrigenics SA, priority 2005, dated 2014).

Biological target: Cathepsin B (Homo sapiens, UniProt P07858)
Test: Cathepsin B activity assay
Assay type: biochemical
Conditions: 36 μM z-RR-AMC, 3.6 nM enzyme, 30 min pre-incubation at 25° C., 60 min at 37° C.; sigmoidal fit; AF: Autofluorescent; read-out: cathepB (inhibition of cysteine protease activity)
Description: Cathepsin B was diluted in Cathepsin B buffer (20 mM Tris HCl pH 6.8; 1 mM EDTA; 1 mM DTT). Compounds stocks (100 mM) were stored at −20° C. in DMSO. […] Reactions were performed as duplicates in Black LJL 96 well plates (HE microplates; Molecular Devices; 20 μl final reaction volume). The substrate concentration for cathepsin B specificity assay was 36 μM (z-RR-AMC; Calbiochem). The concentration of the enzyme (Cathepsin B) in specificity assays was 3.6 nM. The concentrations were determined in order to perform specificity assays under initial velocities at fixed substrate concentration. Compounds were pre-incubated with enzymes for 30 minutes at 25° C. Reactions were initiated by addition of substrate to the plates containing the enzymes (+/− compounds) diluted in assay buffer. Reactions were incubated for 60 minutes at 37° C. Reactions were stopped by adding acetic acid (100 mM final). Readings were performed on a Pherastar Fluorescent Reader (BMG). δ Emission 380 nm; 6 Excitation=460 nm. Data (mean values+/− standard deviation) were analyzed as % of control (no compound) and plotted as percentage versus the Log of the compound concentration using GraphPad (Prism). Data were fitted to a sigmoidal model (variable slope).

Structure (SMILES) | IC50 [µM]
N#Cc1nc2c(nc1C#N)-c1ccccc1C2=NOCc1ccccc1 (mixture of isomers) [Example 13C, 9-Benzyloxyimino-9H-indeno[1,2-b]pyrazine-2,3-dicarbonitrile] | > 100
C=CCON=C1c2ccccc2-c2nc(C#N)c(C#N)nc21 (mixture of isomers) [Example 13b, 9-(Allyloxyimino)-9H-indeno[1,2-b]pyrazine-2,3-dicarbonitrile] | > 100
CCON=C1c2ccccc2-c2nc(C#N)c(C#N)nc21 (mixture of isomers) [Example 13d, 9-Ethoxyimino-9H-indeno[1,2-b]pyrazine-2,3-dicarbonitrile] | > 100
N#Cc1nc2c(nc1C#N)-c1ccccc1C2=Nc1ccccc1 (mixture of isomers) [Example 14, 9-[phenylimino]-9H-indeno[1,2-b]pyrazine-2,3-dicarbonitrile] | 74
CC(=O)O/N=C1\c2ccccc2-c2nc(C(N)=O)c(C#N)nc21 (single isomer, unassigned) [Example 35, 2-cyano-9-acetoxyimino-9H-indeno[1,2-b]pyrazine-3-carboxylic acid amide] | 11.5
N#Cc1nc2c(nc1C#N)-c1ccccc1C2=O [Example 1, 9-oxo-9H-indeno[1,2-b]pyrazine-2,3-dicarbonitrile] | 12
COc1nc2c(nc1C#N)C(=O)c1ccccc1-2 [Example 3, 3-methoxy-9-oxo-9H-indeno[1,2-b]pyrazine-2-carbonitrile] | > 100
CN(C)c1nc2c(nc1C#N)C(=O)c1ccccc1-2 [Example 4, 3-dimethylamino-9-oxo-9H-indeno[1,2-b]pyrazine-2-carbonitrile] | > 100
COCCOc1nc2c(nc1C#N)C(=O)c1ccccc1-2 [Example 5, 3-(2-methoxy-ethoxy)-9-oxo-9H-indeno[1,2-b]pyrazine-2-carbonitrile] | > 100
N#Cc1nc2c(nc1O)-c1ccccc1C2=O [Example 6, 3-hydroxy-9-oxo-9H-indeno[1,2-b]pyrazine-2-carbonitrile] | > 100
N#Cc1nc2c(nc1N)-c1ccccc1C2=O [Example 7, 3-amino-9-oxo-9H-indeno[1,2-b]pyrazine-2-carbonitrile] | > 100
N#Cc1nc2c(nc1N1CCC(F)(F)CC1)-c1ccccc1C2=O [Example 8, 3-(4,4-difluoro-piperidin-1-yl)-9-oxo-9H-indeno[1,2-b]-pyrazine-2-carbonitrile] | > 100
N#Cc1nc2c(nc1Cl)-c1ccccc1C2=O [Example 9, 3-chloro-9-oxo-9H-indeno[1,2-b]pyrazine-2-carbonitrile] | > 100
N#Cc1nc2c(nc1C#N)C1(OCCO1)c1ccccc1-2 [Example 10] | > 100
N#Cc1nc2c(nc1C#N)-c1ccccc1C2=NO [Example 12, 9-[hydroxyimino]-9H-indeno[1,2-b]pyrazine-2,3-dicarbonitrile] | 21
CON=C1c2ccccc2-c2nc(C#N)c(C#N)nc21 [Example 13a, 9-(methoxyimino)-9H-indeno[1,2-b]pyrazine-2,3-dicarbonitrile] | > 100
N#Cc1nc2c(nc1C#N)-c1ccccc1/C2=N/Oc1ccccc1 [Example 13e, 9-Phenoxyimino-9H-indeno[1,2-b]pyrazine-2,3-dicarbonitrile] | > 100
Cc1cccc2c1Cc1nc(C#N)c(C#N)nc1-2 [Example 16c, 8-Methyl-9H-indeno[1,2-b]pyrazine-2,3-dicarbonitrile] | > 100
COc1cc2c(cc1OC)-c1nc(C#N)c(C#N)nc1C2=O [Example 17b, 6,7-Dimethoxy-9-oxo-9H-indeno[1,2-b]pyrazine-2,3-dicarbonitrile] | > 100
Cc1cccc2c1C(=O)c1nc(C#N)c(C#N)nc1-2 [Example 17c, 8-Methyl-9-oxo-9H-indeno[1,2-b]pyrazine-2,3-dicarbonitrile] | > 100
COc1ccc2c(c1OC)C(=O)c1nc(C#N)c(C#N)nc1-2 [Example 17d, 7,8-Dimethoxy-9-oxo-9H-indeno[1,2-b]pyrazine-2,3-dicarbonitrile] | 87

Structure (SMILES) | IC50 [µM]
Cc1ccc2c(c1)-c1nc(C#N)c(C#N)nc1C2=O [Example 17e, 6-Methyl-9-oxo-9H-indeno[1,2-b]pyrazine-2,3-dicarbonitrile] | 20
COc1ccc(OC)c2c1C(=O)c1nc(C#N)c(C#N)nc1-2 [Example 17f, 5,8-Dimethoxy-9-oxo-9H-indeno[1,2-b]pyrazine-2,3-dicarbonitrile] | 52.6
N#Cc1nc2c(nc1C#N)-c1ccc(Cl)cc1C2=O [Example 17g, 7-Chloro-9-oxo-9H-indeno[1,2-b]pyrazine-2,3-dicarbonitrile] | 1.5
N#Cc1nc2c(nc1C#N)-c1ccc(F)cc1C2=O [Example 17h, 7-Fluoro-9-oxo-9H-indeno[1,2-b]pyrazine-2,3-dicarbonitrile] | 6
COc1ccc2c(c1)C(=O)c1nc(C#N)c(C#N)nc1-2 [Example 17i, 7-Methoxy-9-oxo-9H-indeno[1,2-b]pyrazine-2,3-dicarbonitrile] | 32
N#Cc1nc2c(nc1C#N)-c1ccc(O)cc1C2=O [Example 17j, 7-Hydroxy-9-oxo-9H-indeno[1,2-b]pyrazine-2,3-dicarbonitrile] | 40
N#Cc1nc2sc3ccccc3c2nc1C#N [Example 19, benzo[4,5]thieno[2,3-b]pyrazine-2,3-dicarbonitrile] | > 100
N#Cc1nc2c(nc1C#N)C(=O)c1ccccc1C2=O [Example 20, 5,10-dioxo-5,10-dihydro-benzo[g]quinoxaline-2,3-dicarbonitrile] | > 100
N#CNc1nc2c(nc1C#N)C(=O)c1ccccc1-2 [Example 21, 2-cyano-9-oxo-9H-indeno[1,2-b]pyrazin-3-yl-cyanamide] | > 100
CCO/C(O)=C(\C#N)c1nc2c(nc1C#N)C(=O)c1ccccc1-2 [Example 22, 3-(1-cyano-2-ethoxy-2-hydroxy-vinyl)-9-oxo-9H-indeno[1,2-b]pyrazine-2-carbonitrile] | > 100
CCSc1nc2c(nc1C#N)C(=O)c1ccccc1-2 [Example 23, 3-ethylsulfanyl-9-oxo-9H-indeno[1,2-b]pyrazine-2-carbonitrile] | > 100
N#Cc1nc2c(nc1CC(N)=O)-c1ccccc1C2=O [Example 26, 2-(2-cyano-9-oxo-9H-indeno[1,2-b]pyrazin-3-yl)-acetamide] | > 100
N#Cc1nc2c(nc1C#N)-c1ccccc1C2=NOCCOc1ccccc1 [Example 27a, 9-(2-Phenoxy-ethoxyimino)-9H-indeno[1,2-b]pyrazine-2,3-dicarbonitrile] | > 100
N#Cc1nc2c(nc1C#N)-c1ccc(Cl)cc1C2=NOCCOc1ccccc1 [Example 27b, 7-Chloro-9-(2-phenoxy-ethoxyimino)-9H-indeno[1,2-b]pyrazine-2,3-dicarbonitrile] | > 100
CCc1ccc2c(c1)-c1nc(C#N)c(C#N)nc1C2=O [Example 32, 6-ethyl-9-oxo-9H-indeno[1,2-b]pyrazine-2,3-dicarbonitrile] | 69
C=CCON=C1c2ccccc2-c2nc(C(N)=O)c(C#N)nc21 [Example 34a, 9-Allyloxyimino-2-cyano-9H-indeno[1,2-b]pyrazine-3-carboxylic acid amide] | 3.5
CCON=C1c2ccccc2-c2nc(C(N)=O)c(C#N)nc21 [Example 34b, 2-Cyano-9-ethoxyimino-9H-indeno[1,2-b]pyrazine-3-carboxylic acid amide] | > 100
COCCON=C1c2ccccc2-c2nc(C(N)=O)c(C#N)nc21 [Example 34c, 2-Cyano-9-(2-methoxy-ethoxyimino)-9H-indeno[1,2-b]pyrazine-3-carboxylic acid amide] | > 100
CON=C1c2ccccc2-c2nc(C(N)=O)c(C#N)nc21 [Example 34d, 2-Cyano-9-methoxyimino-9H-indeno[1,2-b]pyrazine-3-carboxylic acid amide] | 1.11
N#Cc1nc2c(nc1O)-c1ccc(Cl)cc1C2=O [Example 42, 7-chloro-3-hydroxy-9-oxo-9H-indeno[1,2-b]pyrazine-2-carbonitrile] | > 100
N#Cc1nc2c(nc1C#N)-c1ccc(Cl)cc1C2=NNC(N)=O [Example 43, 9-[(aminocarbonyl)hydrazono]-7-chloro-9H-indeno[1,2-b]pyrazine-2,3-dicarbonitrile] | > 100
